{
  "source": "patent US10428044B2",
  "about": "“3-amino-1,5,6,7-tetrahydro-4H-indol-4-ones” (Bayer Pharma Aktiengesellschaft, priority 2014, dated 2019)",
  "note": "pIC50: −log10 of the molar value.",
  "data": [
    {"target": "(recombinant) catalytic domain of human Bub1 (amino acids 704-1085) (Homo sapiens (Human), UniProt O43683)", "sequence (O43683 704-1085)": "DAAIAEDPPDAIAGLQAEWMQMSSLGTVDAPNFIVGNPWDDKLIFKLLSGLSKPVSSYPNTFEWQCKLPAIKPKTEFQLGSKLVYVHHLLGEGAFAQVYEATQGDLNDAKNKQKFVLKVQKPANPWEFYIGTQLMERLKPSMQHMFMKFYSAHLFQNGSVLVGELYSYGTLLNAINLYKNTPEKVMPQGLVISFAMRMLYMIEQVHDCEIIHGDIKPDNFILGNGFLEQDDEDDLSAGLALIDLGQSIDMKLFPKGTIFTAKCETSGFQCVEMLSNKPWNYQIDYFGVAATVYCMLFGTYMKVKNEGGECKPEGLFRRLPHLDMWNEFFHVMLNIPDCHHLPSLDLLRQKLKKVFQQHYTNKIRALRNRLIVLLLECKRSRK", "test": "Bub1 kinase assay (TR-FRET)", "type": "biochemical", "settings": "ATP 10 μM final, peptide substrate 1 μM final, 60 min at 22° C., read-out: Biological Assay: Bub1 kinase assay median IC50", "method": "Examples were tested in selected biological assays one or more times. When tested more than once, data are reported as either average values or as median values, wherein • the average value, also referred to as the arithmetic mean value, represents the sum of the values obtained divided by the number of times tested, and • the median value represents the middle number of the group of values when ranked in ascending or descending order. If the number of values in the data set is odd, the median is the middle value. If the number of values in the data set is even, the median is the arithmetic mean of the two middle values.\nTo this end, 100-fold concentrated compound solutions (in DMSO) were previously prepared by serial dilution (1:3.4) of 2 mM stocks in a clear low volume 384-well source microtiter plate (Greiner Bio-One, Frickenhausen, Germany), from which 50 nl of compounds were transferred into a black low volume test microtiter plate from the same supplier. […] The resulting mixture (5 μL final volume) was incubated at 22° C. during 60 min., and the reaction was stopped by the addition of 5 μL of an aqueous EDTA-solution (50 mM EDTA, in 100 mM HEPES pH 7.5 and 0.2% (w/v) bovine serum albumin) which also contained the TR-FRET detection reagents (0.2 μM streptavidin-XL665 [Cisbio Bioassays, Codolet, France] and 1 nM anti-phosho-Serine antibody [Merck Millipore, cat. #35-002] and 0.4 nM LANCE EU-W1024 labeled anti-mouse IgG antibody [Perkin-Elmer, product no. AD0077, alternatively a Terbium-cryptate-labeled anti-mouse IgG antibody from Cisbio Bioassays can be used]). The stopped reaction mixture was further incubated 1 h at 22° C. in order to allow the formation of complexes between peptides and detection reagents. Subsequently, the amount of product was evaluated by measurement of the resonance energy transfer from the Eu-chelate-antibody complex recognizing the Phosphoserine residue to the streptavidin-XL665 bound to the biotin moiety of the peptide. […] The data were normalised using two sets of control wells for high- (=enzyme reaction without inhibitor=0%=Minimum inhibition) and low- (=all assay components without enzyme=100%=Maximum inhibition) Bub1 activity. IC50 values were calculated by fitting the normalized inhibition data to a 4-parameter logistic equation (Minimum, Maximum, IC50, Hill; Y=Max+(Min−Max)/(1+(X/IC50)Hill)).", "values": [
      {"smiles": "CC1(C)CC(=O)c2c([nH]c(-c3ccncc3)c2Nc2cccc([N+](=O)[O-])c2)C1", "note": "[Example 16, 6,6-dimethyl-3-[(3-nitrophenyl)amino]-2-(pyridin-4-yl)-1,5,6,7-tetrahydro-4H-indol-4-one]", "pIC50": 7.57},
      {"smiles": "CC1(C)CC(=O)c2c([nH]c(-c3ccncc3)c2Nc2cc(F)cc(Cl)c2)C1", "note": "[Example 19, 3-[(3-chloro-5-fluorophenyl)amino]-6,6-dimethyl-2-(pyridin-4-yl)-1,5,6,7-tetrahydro-4H-indol-4-one]", "pIC50": 7.71},
      {"smiles": "O=C1CC(C(F)(F)F)Cc2[nH]c(-c3ccncc3)c(Nc3ccccc3)c21", "note": "(centres unmarked) [Example 20, 3-(phenylamino)-2-(pyridin-4-yl)-6-(trifluoromethyl)-1,5,6,7-tetrahydro-4H-indol-4-one]", "pIC50": 8.03},
      {"smiles": "CC1(C)CC(=O)c2c([nH]c(-c3ccncc3)c2Nc2ccc(F)c(F)c2)C1", "note": "[Example 21, 3-[(3,4-difluorophenyl)amino]-6,6-dimethyl-2-(pyridin-4-yl)-1,5,6,7-tetrahydro-4H-indol-4-one]", "pIC50": 7.88},
      {"smiles": "CC1CC(=O)c2c([nH]c(-c3ccncc3)c2Nc2ccccc2)C1", "note": "(centres unmarked) [Example 22, 6-methyl-3-(phenylamino)-2-(pyridin-4-yl)-1,5,6,7-tetrahydro-4H-indol-4-one]", "pIC50": 7.98},
      {"smiles": "CC1(C)CC(=O)c2c([nH]c(-c3ccnc(F)c3)c2Nc2cccc(F)c2)C1", "note": "[Example 24, 3-[(3-fluorophenyl)amino]-2-(2-fluoropyridin-4-yl)-6,6-dimethyl-1,5,6,7-tetrahydro-4H-indol-4-one]", "pIC50": 7.69},
      {"smiles": "CC1(C)CC(=O)c2c([nH]c(-c3ccncc3)c2Nc2ccccn2)C1", "note": "[Example 25, 6,6-dimethyl-2-(pyridin-4-yl)-3-(pyridin-2-ylamino)-1,5,6,7-tetrahydro-4H-indol-4-one]", "pIC50": 7.58},
      {"smiles": "CC1(C)CC(=O)c2c([nH]c(-c3ccncc3)c2Nc2ccc3ccoc3c2)C1", "note": "[Example 26, 3-(1-benzofuran-6-ylamino)-6,6-dimethyl-2-(pyridin-4-yl)-1,5,6,7-tetrahydro-4H-indol-4-one]", "pIC50": 7.49},
      {"smiles": "CC1(C)CC(=O)c2c([nH]c(-c3ccnc4[nH]ccc34)c2Nc2ccccc2)C1", "note": "[Example 27, 6,6-dimethyl-3-(phenylamino)-2-(1H-pyrrolo[2,3-b]pyridin-4-yl)-1,5,6,7-tetrahydro-4H-indol-4-one]", "pIC50": 7.36},
      {"smiles": "CCC1CC(=O)c2c([nH]c(-c3ccncc3)c2Nc2ccccc2)C1", "note": "(centres unmarked) [Example 28, 6-ethyl-3-(phenylamino)-2-(pyridin-4-yl)-1,5,6,7-tetrahydro-4H-indol-4-one]", "pIC50": 8.23},
      {"smiles": "CC(C)CC1CC(=O)c2c([nH]c(-c3ccncc3)c2Nc2ccccc2)C1", "note": "(centres unmarked) [Example 29, 6-(2-methylpropyl)-3-(phenylamino)-2-(pyridin-4-yl)-1,5,6,7-tetrahydro-4H-indol-4-one]", "pIC50": 8.21},
      {"smiles": "CC1(C)CC(=O)c2c([nH]c(-c3ccncc3F)c2Nc2ccccc2)C1", "note": "[Example 30, 2-(3-fluoropyridin-4-yl)-6,6-dimethyl-3-(phenylamino)-1,5,6,7-tetrahydro-4H-indol-4-one]", "pIC50": 8.24},
      {"smiles": "CC1(C)CC(=O)c2c([nH]c(-c3ccncc3)c2Nc2cc(F)cc(F)c2)C1", "note": "[Example 31, 3-[(3,5-difluorophenyl)amino]-6,6-dimethyl-2-(pyridin-4-yl)-1,5,6,7-tetrahydro-4H-indol-4-one]", "pIC50": 8.26},
      {"smiles": "CC1(C)CC(=O)c2c([nH]c(-c3ccncc3)c2Nc2cc(F)c(F)c(F)c2)C1", "note": "[Example 32, 6,6-dimethyl-2-(pyridin-4-yl)-3-[(3,4,5-trifluorophenyl)amino]-1,5,6,7-tetrahydro-4H-indol-4-one]", "pIC50": 7.80},
      {"smiles": "O=C1CCCc2[nH]c(-c3ccncc3Cl)c(Nc3ccccc3)c21", "note": "[Example 33, 2-(3-chloropyridin-4-yl)-3-(phenylamino)-1,5,6,7-tetrahydro-4H-indol-4-one]", "pIC50": 7.75},
      {"smiles": "CC1(C)CC(=O)c2c([nH]c(-c3ccnc4[nH]ncc34)c2Nc2ccccc2)C1", "note": "[Example 34, 6,6-dimethyl-3-(phenylamino)-2-(1H-pyrazolo[3,4-b]pyridin-4-yl)-1,5,6,7-tetrahydro-4H-indol-4-one]", "pIC50": 7.51},
      {"smiles": "CCC(=O)Nc1cc(-c2[nH]c3c(c2Nc2ccccc2)C(=O)CC(C)(C)C3)ccn1", "note": "[Example 35, N-{4-[6,6-dimethyl-4-oxo-3-(phenylamino)-4,5,6,7-tetrahydro-1H-indol-2-yl]pyridin-2-yl}propanamide]", "pIC50": 7.76},
      {"smiles": "CC(=O)Nc1cc(-c2[nH]c3c(c2Nc2ccccc2)C(=O)CC(C)(C)C3)ccn1", "note": "[Example 36, N-{4-[6,6-dimethyl-4-oxo-3-(phenylamino)-4,5,6,7-tetrahydro-1H-indol-2-yl]pyridin-2-yl}acetamide]", "pIC50": 7.58},
      {"smiles": "O=C1CC2(CC2)Cc2[nH]c(-c3ccncc3)c(Nc3ccccc3)c21", "note": "[Example 37, 3′-(phenylamino)-2′-(pyridin-4-yl)-1′,7′-dihydrospiro[cyclopropane-1,6′-indol]-4′(5′H)-one]", "pIC50": 8.07},
      {"smiles": "O=C1CCCc2[nH]c(-c3ccncc3)c(Nc3ccc(F)c(F)c3)c21", "note": "[Example 38, 3-[(3,4-difluorophenyl)amino]-2-(pyridin-4-yl)-1,5,6,7-tetrahydro-4H-indol-4-one]", "pIC50": 8.10},
      {"smiles": "CC(=O)Nc1cc(-c2[nH]c3c(c2Nc2ccccc2)C(=O)CCC3)ccn1", "note": "[Example 39, N-{4-[4-oxo-3-(phenylamino)-4,5,6,7-tetrahydro-1H-indol-2-yl]pyridin-2-yl}acetamide]", "pIC50": 7.83},
      {"smiles": "CC(=O)Nc1cc(-c2[nH]c3c(c2Nc2cccc(F)c2)C(=O)CCC3)ccn1", "note": "[Example 40, N-(4-{3-[(3-fluorophenyl)amino]-4-oxo-4,5,6,7-tetrahydro-1H-indol-2-yl}pyridin-2-yl)acetamide]", "pIC50": 7.82},
      {"smiles": "O=C1CCCc2[nH]c(-c3ccncc3)c(Nc3cccc(F)c3)c21", "note": "[Example 41, 3-[(3-fluorophenyl)amino]-2-(pyridin-4-yl)-1,5,6,7-tetrahydro-4H-indol-4-one]", "pIC50": 7.95},
      {"smiles": "O=C1CCCc2[nH]c(-c3ccncc3)c(Nc3ccc(F)cc3)c21", "note": "[Example 42, 3-[(4-fluorophenyl)amino]-2-(pyridin-4-yl)-1,5,6,7-tetrahydro-4H-indol-4-one]", "pIC50": 7.64},
      {"smiles": "O=C1CC(C(F)(F)F)Cc2[nH]c(-c3ccncc3)c(Nc3cccc(F)c3)c21", "note": "(centres unmarked) [Example 43, 3-[(3-fluorophenyl)amino]-2-(pyridin-4-yl)-6-(trifluoromethyl)-1,5,6,7-tetrahydro-4H-indol-4-one]", "pIC50": 8.02},
      {"smiles": "O=C1CCCc2[nH]c(-c3ccnc(F)c3)c(Nc3ccccc3)c21", "note": "[Example 44, 2-(2-fluoropyridin-4-yl)-3-(phenylamino)-1,5,6,7-tetrahydro-4H-indol-4-one]", "pIC50": 7.77},
      {"smiles": "CC1(C)CC(=O)c2c([nH]c(-c3ccncc3)c2Nc2cccc(-c3ccccc3)c2)C1", "note": "[Example 45, 3-(biphenyl-3-ylamino)-6,6-dimethyl-2-(pyridin-4-yl)-1,5,6,7-tetrahydro-4H-indol-4-one]", "pIC50": 7.68},
      {"smiles": "CC1(C)CC(=O)c2c([nH]c(-c3ccnc(C#N)c3)c2Nc2ccccc2)C1", "note": "[Example 46, 4-[6,6-dimethyl-4-oxo-3-(phenylamino)-4,5,6,7-tetrahydro-1H-indol-2-yl]pyridine-2-carbonitrile]", "pIC50": 7.54},
      {"smiles": "O=C1CCCc2[nH]c(-c3ccnc(NC(=O)C4CC4)c3)c(Nc3cccc(F)c3)c21", "note": "[Example 47, N-(4-{3-[(3-fluorophenyl)amino]-4-oxo-4,5,6,7-tetrahydro-1H-indol-2-yl}pyridin-2-yl)cyclopropanecarboxamide]", "pIC50": 7.86}
    ]}
  ]
}
